From PubChem BioAssay (NCI)
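Following 48 hours of exposure in 96-well plates, responses at five concentrations were used to interpolate endpoints linearly. TGI: concentration producing complete growth inhibition.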

Tests used:
Experiment in all cases: NCI anticancer screen, dose series, 48 h
SNB-75 CNS = tested on: SNB-75 CNS
NCI/ADR-RES ovarian = tested on: NCI/ADR-RES ovarian
PC-3 prostate = tested on: PC-3 prostate
KM12 colon = tested on: KM12 colon
ACHN renal = tested on: ACHN renal
SK-MEL-5 melanoma = tested on: SK-MEL-5 melanoma
CAKI-1 renal = tested on: CAKI-1 renal
T-47D breast = tested on: T-47D breast
A549 NSCLC = tested on: A549 NSCLC
SK-MEL-2 melanoma = tested on: SK-MEL-2 melanoma

SMILES | TGI (SNB-75 CNS) [µM] | TGI (NCI/ADR-RES ovarian) [µM] | TGI (PC-3 prostate) [µM] | TGI (KM12 colon) [µM] | TGI (ACHN renal) [µM] | TGI (SK-MEL-5 melanoma) [µM] | TGI (CAKI-1 renal) [µM] | TGI (T-47D breast) [µM] | TGI (A549 NSCLC) [µM] | TGI (SK-MEL-2 melanoma) [µM]
CCOC(=O)/C=C(/C=C\COC1CCCCO1)c1ccccc1 (centres undefined) | 69.7 | 95.7 | > 100 | 79.3 | > 100 | > 100 | > 100 | 72.3 | > 100 | > 100
S=c1[nH]nc(Cn2c3ccc(Br)cc3c3nc4ccccc4nc32)n1C1CCCCC1 | > 100 | > 92 | > 66.9 | > 100 | 98.9 | 49.1 | > 100 | > 100 | > 64.1 | 54.6
COc1cccc(N2C(=O)CS(=O)(=O)C2c2cccc(Oc3ccccc3)c2)c1 (centres undefined) | 84.5 | 77.3 | 85.8 | > 100 | 60.2 | 22.6 | > 100 | 81.1 | > 100 | 38.8
CC1(C)N=C(N)N=C(N)N1c1cccc(OCc2cccc(N)c2)c1 | > 100 | > 100 | > 100 | > 100 | > 100 | > 100 | > 100 | > 100 | > 100 | > 100
O=P(OCc1ccccc1)(OCc1ccccc1)C(O)/C=C/c1ccccc1 (centres undefined) | – | 62.9 | > 100 | 43.1 | 95.9 | 34.6 | 98.7 | 88.3 | > 100 | 43.8
COc1ccc2c(c1)-c1c(c3cc(OC)ccc3n1CCN(C)C)CC2 | 43.4 | 32 | 25.9 | 36.7 | 28.4 | 24.9 | 28.8 | 41 | 29.9 | 29
Clc1cc(C(c2cc(Cl)sc2Cl)c2cc(Cl)sc2Cl)c(Cl)s1 | > 100 | > 100 | > 100 | > 100 | > 100 | > 100 | > 100 | > 100 | > 100 | > 100
CC(=O)OCC(=O)O[C@@H]1[C@H]2[C@@H](OC(=O)c3ccccc3)[C@@H](C)C[C@]2(O)[C@H](OC(C)=O)[C@@]2(C)C[C@]1(OC(C)=O)C[C@H]1C(=O)C(C)(C)[C@@H](OC(C)=O)[C@@H]12 | > 25 | > 25 | > 25 | > 25 | > 25 | > 25 | > 25 | > 25 | > 25 | > 25
COC(=O)C1=C(C(=O)OC)SC(=C2SC3=C(SC(=C4SCCS4)S3)S2)S1 | 6.86 | > 100 | > 100 | > 100 | > 100 | > 100 | > 100 | > 100 | > 100 | > 100
CC(=O)N(C)c1ccc(Nc2ccnc3ccc4nn(C)nc4c23)cc1 | > 100 | > 100 | > 100 | 76.2 | 30.2 | 37.6 | 30.5 | 76.1 | 78 | 45.7
COc1cc2c3cc1Oc1c(OC)c(OC)cc4c1C(Cc1ccc(O)c(c1)Oc1ccc(cc1)CC3N(C)CC2)CN(C)C4 (centres undefined) | 29.9 | 41.7 | > 100 | 26.3 | > 100 | 26.4 | 44.3 | 69.6 | 63.9 | 33.6
